{"source": "patent US20150306178A1", "about": "“METHODS AND COMPOSITIONS FOR TREATING AND PREVENTING TINNITUS” (Auris Medical AG, priority 2014, published 2015)", "key": {"c-Jun/JNK complex": {"system": "c-Jun/JNK complex", "details": "in vitro and in intact cells; Holzberg et al. 2003; cited from earlier work"}, "ASNHL-related tinnitus": {"system": "ASNHL-related tinnitus", "experiment": "Double-blind, randomized, placebo-controlled phase II study of AM-111 in ASNHL and associated tinnitus", "format": "in vivo, human", "details": "for Number of Subjects with Tinnitus/Number of Subjects with Observation (%): Safety Population; for Complete ASNHL-Related Tinnitus Remission in the Treated Ear, Frequency (%): time point Overall, mITT", "experimental": "A double-blind, randomized, placebo-controlled phase II study was conducted to evaluate the efficacy and safety of AM-111 in treating ASNHL and associated tinnitus. Eligible participants were aged 18 to 60 years and suffered from ASNHL (unilateral idiopathic sudden sensorineural hearing loss (ISSNHL), uni- or bilateral acute acoustic trauma (AAT)) with hearing loss of at least 30 dB and onset not more than 48 hours previously. The hearing loss was determined against a reference value: mean hearing threshold at the 3 most affected contiguous test frequencies (pure tone average, PTA) less corresponding mean hearing threshold of the contralateral ear (Plontke et al., 2007). In case of previously asymmetric hearing or bilateral ASNHL, thresholds from a previous audiogram or ISO-7029; 2000 norm values served as reference. The PTA frequencies determined at baseline remained fixed for all evaluations.\nExclusion criteria included history of Meniere's disease, autoimmune or radiation induced hearing […] loss, endolymphatic hydrops or fluctuating hearing loss, suspected perilymph fistula, membrane rupture or retrocochlear lesion, barotrauma, air-bone gap >20 dB in 3 contiguous frequencies, previous ASNHL incident within the past 6 weeks, and acute or chronic otitis media or otitis externa. Women who were breast feeding, pregnant or who planned a pregnancy during the study, or women of childbearing potential who declared being unwilling or unable to practice an effective method of […] contraception were excluded. Written informed consent was obtained from each patient prior to the performance of any study-specific procedures.\nAt baseline (Day 0), study participants were randomized to receive AM-111 (0.4 or 2.0 mg/mL) or placebo at a 2:1 ratio. The study consisted of a baseline assessment and 4 follow-up visits on Days 3, 7, 30, and 90. Baseline assessments included a general physical examination, vital signs, and a urine pregnancy test for women of childbearing age. At each study visit pure tone hearing thresholds, speech discrimination at 60 and 80 dB, and subjective tinnitus loudness were determined. Those patients reporting tinnitus were asked to rate its loudness “right now” on a numerical scale ranging from 0 (no tinnitus) to 10 (extremely loud).\nApproximately 0.25 mL of the study drug was administered on Day 0 by intratympanic (i.t.) injection under local anesthesia through a small myringotomy with the patient's head placed in a position tilted 45° towards the unaffected ear. Patients remained in their reclined or supine position for approximately 30 minutes to allow for diffusion of the active substance into the cochlea. In case of bilateral AAT, only the worst affected ear was treated. Subjects whose PTA recovered <10 dB from baseline to Day 7 were given the option to receive oral prednisolone 50 mg (Ratiopharm, Ulm, Germany) b.i.d. for 5 days.\nThe sample size was determined based on an expected effect size of 0.6, a two-sided type I error rate of 5% and a statistical power of 80%.\nEfficacy analyses were primarily performed on a modified “Intention to treat” (mITT) analysis set (treated patients with PTA measured on Day 3±1 or Day 7+4 days at most) and secondarily on the “Per Protocol” (PP) analysis set. The “Safety Population” analysis set included all patients who received an injection of the study medication. Random imputation was performed for missing PTA values at Days 7 and 30, and missing speech discrimination score (SDS) values at Day 7 based on the preceding value and the mean change observed in the respective treatment group (mITT set).\nFor continuous efficacy endpoints, analysis of covariance (ANCOVA) models were used including treatment group and initial frequency range as class effects, and baseline values of the respective endpoint as covariate. For the complete recovery rate, a logistic regression model was applied including treatment, initial frequency range, and baseline hearing loss as predictor variables. […]"}, "[1]": {"system": "models of cochlear insult", "details": "acute noise trauma, acute labyrinthitis, aminoglycoside ototoxicity, bacterial infection, cochlear ischemia, cochlear implantation trauma; cited from earlier work"}}, "note": "Values joined by “and” are separate entries in the source; they are usually repeats but may differ in a detail not shown here. Identical values can stand only once. Where no end group is shown, it is not given here. [ ]: non-standard residue; d: D form.", "data": [{"substance": "Ac-YGRKKRRQRRR-gaba-ILKQSMTLNLADPVGSLKPHLRAKN-NH2 (YGRKKRRQRRRXILKQSMTLNLADPVGSLKPHLRAKN; N-acetyl; GABA spacer; C-terminal amide) [SEQ ID NO: 45, cell-permeable 37-mer peptide of human c-Jun delta domain and HIV-TAT protein transduction domain fused by a GABA spacer]", "values": [{"measurement": "Disruption of c-Jun/JNK complex formation and subsequent phosphorylation and activation of c-Jun by JNK", "setting": "c-Jun/JNK complex", "value": "specifically disrupt c-Jun/JNK complex formation"}]}, {"substance": "AM-111: 31-amino acid cell-permeable peptide (SEQ ID NO: 2, all-D), islet-brain 1 effector domain fused to TAT, formulated in a biocompatible hyaluronic acid gel ([dD][dQ][dS][dR][dP][dV][dQ][dP][dF][dL][dN][dL][dT][dT][dP][dR][dK][dP][dR][dP][dP][dR][dR][dR][dQ][dR][dR][dK][dK][dR]G)", "values": [{"measurement": "Number of Subjects with Tinnitus/Number of Subjects with Observation (%)", "setting": "ASNHL-related tinnitus; AM-111 0.4 mg/mL single i.t. injection, Day 0, after study drug, 53/56 subjects with ASNHL-related tinnitus", "value": "53/56 (94.6) %"}, {"measurement": "Number of Subjects with Tinnitus/Number of Subjects with Observation (%)", "setting": "ASNHL-related tinnitus; AM-111 0.4 mg/mL single i.t. injection, Day 3, 51/56 subjects", "value": "51/56 (91.1) %"}, {"measurement": "Number of Subjects with Tinnitus/Number of Subjects with Observation (%)", "setting": "ASNHL-related tinnitus; AM-111 0.4 mg/mL single i.t. injection, Day 7, 42/55 subjects", "value": "42/55 (76.4) %"}, {"measurement": "Number of Subjects with Tinnitus/Number of Subjects with Observation (%)", "setting": "ASNHL-related tinnitus; AM-111 0.4 mg/mL single i.t. injection, Day 30, 26/55 subjects", "value": "26/55 (47.3) %"}, {"measurement": "Number of Subjects with Tinnitus/Number of Subjects with Observation (%)", "setting": "ASNHL-related tinnitus; AM-111 0.4 mg/mL single i.t. injection, Day 90, 19/50 subjects, placebo 56.0%", "value": "38.0% and 19/50 (38.0) %"}, {"measurement": "Complete ASNHL-Related Tinnitus Remission in the Treated Ear, Frequency (%)", "setting": "ASNHL-related tinnitus; AM-111 0.4 mg/mL, All Subjects N = 50 (35 subjects), placebo 54.9%, p=0.151", "value": "35 (70.0%)"}, {"measurement": "Complete ASNHL-Related Tinnitus Remission in the Treated Ear, Frequency (%)", "setting": "ASNHL-related tinnitus; AM-111 0.4 mg/mL, Mild to Moderate hearing loss subgroup N = 25 (21 subjects), placebo 78.6%, p=0.732", "value": "21 (84.0%)"}, {"measurement": "Number of Subjects with Tinnitus/Number of Subjects with Observation (%)", "setting": "ASNHL-related tinnitus; AM-111 2.0 mg/mL single i.t. injection, Day 0, after study drug, 58/59 subjects", "value": "58/59 (98.3) %"}, {"measurement": "Number of Subjects with Tinnitus/Number of Subjects with Observation (%)", "setting": "ASNHL-related tinnitus; AM-111 2.0 mg/mL single i.t. injection, Day 3, 59/59 subjects", "value": "59/59 (100) %"}, {"measurement": "Number of Subjects with Tinnitus/Number of Subjects with Observation (%)", "setting": "ASNHL-related tinnitus; AM-111 2.0 mg/mL single i.t. injection, Day 7, 51/58 subjects", "value": "51/58 (87.9) %"}, {"measurement": "Number of Subjects with Tinnitus/Number of Subjects with Observation (%)", "setting": "ASNHL-related tinnitus; AM-111 2.0 mg/mL single i.t. injection, Day 30, 35/56 subjects", "value": "35/56 (62.5) %"}, {"measurement": "Number of Subjects with Tinnitus/Number of Subjects with Observation (%)", "setting": "ASNHL-related tinnitus; AM-111 2.0 mg/mL single i.t. injection, Day 90, 28/54 subjects, placebo 56.0%", "value": "51.9% and 28/54 (51.9) %"}, {"measurement": "Complete ASNHL-Related Tinnitus Remission in the Treated Ear, Frequency (%)", "setting": "ASNHL-related tinnitus; AM-111 2.0 mg/mL, All Subjects N = 56 (31 subjects), placebo 54.9%, p=1.000", "value": "31 (55.4%)"}, {"measurement": "Complete ASNHL-Related Tinnitus Remission in the Treated Ear, Frequency (%)", "setting": "ASNHL-related tinnitus; AM-111 2.0 mg/mL, Mild to Moderate hearing loss subgroup N = 27 (17 subjects), placebo 78.6%, p=0.245", "value": "17 (63.0%)"}, {"measurement": "Number of Subjects with Tinnitus/Number of Subjects with Observation (%)", "setting": "ASNHL-related tinnitus; AM-111 Total (0.4 and 2.0 mg/mL groups), Day 0, after study drug, 111/115 subjects", "value": "111/115 (96.5) %"}, {"measurement": "Number of Subjects with Tinnitus/Number of Subjects with Observation (%)", "setting": "ASNHL-related tinnitus; AM-111 Total (0.4 and 2.0 mg/mL groups), Day 3, 110/115 subjects", "value": "110/115 (95.7) %"}, {"measurement": "Number of Subjects with Tinnitus/Number of Subjects with Observation (%)", "setting": "ASNHL-related tinnitus; AM-111 Total (0.4 and 2.0 mg/mL groups), Day 7, 93/113 subjects", "value": "93/113 (82.3) %"}, {"measurement": "Number of Subjects with Tinnitus/Number of Subjects with Observation (%)", "setting": "ASNHL-related tinnitus; AM-111 Total (0.4 and 2.0 mg/mL groups), Day 30, 61/111 subjects", "value": "61/111 (55.0) %"}, {"measurement": "Number of Subjects with Tinnitus/Number of Subjects with Observation (%)", "setting": "ASNHL-related tinnitus; AM-111 Total (0.4 and 2.0 mg/mL groups), Day 90, 47/104 subjects", "value": "47/104 (45.2) %"}, {"measurement": "Complete tinnitus remission, AM-111 treatment groups versus placebo", "setting": "ASNHL-related tinnitus; subgroup mild to moderate hearing loss, Fisher's Exact Test", "value": "no statistically significant differences"}, {"measurement": "Otoprotection in models of cochlear insult", "setting": "[1]", "value": "otoprotective"}]}]}
